In patent publication US5663151A, “Sulfated α-glycolipid derivatives as cell adhesion inhibitors” (Bristol-Myers Squibb Company, priority 1995, dated 1997):

How the values were obtained:
P-selectin [1] = conditions: Skinner et al.; cited from earlier work
P-selectin [2] = molecular target: T1, P-selectin (Homo sapiens, UniProt P16109); assay: P-selectin binding ELISA to immobilized sulfatides (cell free); conditions: inhibition of P-selectin binding to immobilized sulfatide
T1 construct: consists of the human lectin domain, the EGF domain, and two complement repeats of the human selectins; made in house
T1 sequence (P16109 with tags, fused parts or gaps limits assumed): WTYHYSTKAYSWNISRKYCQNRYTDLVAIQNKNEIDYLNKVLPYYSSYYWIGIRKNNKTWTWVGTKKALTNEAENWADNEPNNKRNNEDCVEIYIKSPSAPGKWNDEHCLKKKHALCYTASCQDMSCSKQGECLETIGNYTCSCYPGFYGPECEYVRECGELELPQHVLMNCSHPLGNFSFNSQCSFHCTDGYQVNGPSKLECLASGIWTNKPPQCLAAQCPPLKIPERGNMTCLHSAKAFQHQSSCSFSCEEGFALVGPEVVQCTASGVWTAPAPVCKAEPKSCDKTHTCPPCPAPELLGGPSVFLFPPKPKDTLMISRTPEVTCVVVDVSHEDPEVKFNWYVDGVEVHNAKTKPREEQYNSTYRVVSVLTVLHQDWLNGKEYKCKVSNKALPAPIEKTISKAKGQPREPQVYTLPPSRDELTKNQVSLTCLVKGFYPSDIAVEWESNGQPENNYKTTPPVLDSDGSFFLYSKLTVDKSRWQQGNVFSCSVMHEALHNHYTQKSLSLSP
Experimental: Based on the availability of soluble forms of P-selectin prepared as described by Aruffo, A., et al., Cell, 67, 35-44 (1991), a binding ELISA based assay modified from Foxall, et al., J., Cell Biol., 117, 895-902 (1992) was developed to measure inhibitors of P-selectin binding to immobilized sulfatides. Such inhibitors were tested in the assay described below.
0.1 ml of sulfatide (SIGMA) or lysosulfatide (SIGMA) each at 1 μg/ml in MeOH were added to the wells of a 96-well ELISA plate (ProBind, Falcon) and allowed to dry overnight at room temperature. The next day the antigen coated plates were blocked for 1.5 hours at room temperature with 5% BSA (ICN) in buffer containing 20 mM Hepes and 0.15M NaCl, pH 8.0. Wild type P-selectin and mutants thereof were first mixed with HRP-conjugated goat anti-human lgG (Fisher Scientific), serially diluted and then incubated for 30 minutes at 37° C. in buffer containing 20 mM Hepes, 0.15M NaCl, 1% BSA and 0.8 mM CaCl2, pH 8.0 prior to addition to the BSA blocked plates. Following the 30 minute preincubation, the fusion protein-HRP conjugate immunocomplexes were incubated on the blocked antigen coated plates for 45 minutes at 37° C. in the presence or absence of the test compounds and then washed to remove any unbound proteins. Bound complexes were detected by addition of substrate buffer (95 mM NaOAc.3H2 O, 5 mM citric acid monohydrate, 1.4 mM urea/H2O2) containing 3, 3', 5, 5' Tetramethylbenzidine (SIGMA). Reactions were stopped by the addition of 3N sulfuric acid and the absorbance read on an ELISA reader at dual wavelengths 450 and 630 nm. The efficacy of these compounds was compared to that of sulfatide (positive control) or to lysosulfatide (negative control). The data is obtained as percent inhibition of specific binding [formula] and a plot of dose vs. percent inhibition of Rg binding is generated in which IC50 (μM) is calculated and reported as cell free data in Table 1.

P-selectin Rg = molecular target: T2, P-selectin Rg (Homo sapiens, UniProt P16109); assay: HL-60 cell binding to P-selectin Rg; assay type: cell-based; conditions: HL-60 cells, binding to P-selectin Rg coated wells
T2 construct: consists of the human lectin domain, the EGF domain, and two complement repeats of the human selectins; made in house
T2 sequence (P16109 with tags, fused parts or gaps limits assumed): as above
Experimental: 2. HL-60 Cell Binding to P- and E-Selectin RG
The chimeric P- and E-selectin receptor globulin (Rg) consists of the human lectin domain, the EGF domain, and two complement repeats of the human selectins fused to the hinge, CH1 and CH2 domains of human IgG1. These proteins were prepared as described by Aruffo, et al., Cell (1991) 67: 35-44; Walz, et al., Science (1990) 250, 1132-1135.
The HL-60 cell line, obtained from the American Type Culture Collection, ATCC No. CCL240, was employed to investigate P-selectin Rg binding. Assays were done in 96-well tissue culture dishes. The wells were first coated with 0.5 ug goat anti-human Fc antiserum overnight, and nonspecific binding sites were blocked by incubation of the wells with 1% nonfat dry milk in phosphate buffered saline (PBS containing 0.9 mM CaCl2 and 0.8 mM MgSO4) for 30 minutes. The Rg was then bound to the anti Fc-coated wells by incubating 50 ng in 50 ul of PBS for two hours. Cells, washed twice and resuspended in PBS to remove traces of medium components, were labeled with 10 uM calcein acetoxy methyl ester for 30 minutes at 3×10^7 cells per ml at room temperature. Serum-containing medium (RPMI with 20% fetal calf serum) was added, and the cells washed, followed by resuspension in PBS and a further spin. The labeled cells, resuspended in PBS, were added to twice washed Rg-containing wells at 200,000 per well. Following a 30 minute incubation with slow shaking, the wells were aspirated and washed three times with PBS to remove unbound cells. To certain wells were added known numbers of cells for determination of a standard curve of fluorescent units per cell. The fluorescence on the plate was quantitated using a fluorescent plate reader. Following subtraction of a blank representing the binding of cells to non-Rg containing wells (<5000 cells), the specific binding to P- or E- selectin was determined.
Inhibitors of cell binding
Test compounds were prepared by dissolution to a final concentration of 20 mg/ml in dimethyl sulfoxide (DMSO), diluted in PBS to 2 mg/ml, and briefly sonicated prior to use. The Rg coated wells were preincubated at room temperature for 15 minutes with the inhibitor, and 200,000 cells were added to yield the final indicated inhibitor concentration in 160 ul of PBS. The data is obtained as percent inhibition of specific binding: [formula] and a plot of dose vs. percent inhibition of Rg binding is generated in which IC50 (μM) is calculated and reported in Table 1.

rats = assay: Reverse passive Arthus reaction (RPA) in rats; assay type: in vivo, Male Sprague Dawley rats; conditions: 3 mg single dose IV, 4 hours; for RPA MPO % Inhib.: myeloperoxidase; for RPA VP % Inhib.: vascular permeability
Description: 3. Reverse Passive Arthus Reaction in Rats
The reverse passive Arthus reaction in rats is a modification of the method by Mulligan et al., as described in J. Clin. Invest. (1991) 88: 1396-1406. This is an experimental model in which the interaction of antigen-antibodycomplexes and complement leads to a severe vasculitis that is associated with edema, induration, erythema and hemorrhage. The interaction between the antigen-antibody complexes and complement leads to a localized influx of neutrophils. These neutrophils release a variety of mediators that are associated with tissue damage and vascular permeability. The localized inflammatory reaction is measured using different techniques i.e., vascular permeability and neutrophil influx which is evaluated both biochemically and microscopically.
Male Sprague Dawley specific pathogen-free rats with jugular vein cannulae (280-320 g, Hill Top Labs, Pa.) are used in these studies. Animals are acclimated for at least 1 day and individually housed in stainless steel cages. The dorsal region of the rats is closely clipped 2 days prior to the experiments and divided into 4 sites on each side of the midline. Prior to all injections the rats are sedated with 0.4 ml per 300 gm rat of ketamine/rompun [1000 mg (10 ml) of ketamine HCL is mixed with 40 mg (2.0 ml) Rompun] administered IP and or inhalation anesthesia with metafane (methoxyflurane).
Bovin Serum Albumin (BSA) and rabbit polyclonal IgG rich in anti-BSA are purchased from Sigma Chemical Co. (St. Louis, Mo.). Radiolabelled ^125 I-BSA (spAct 1-5 μCi/μg) is purchased from Dupont NEN (Boston, Mass.).
Each rat is administered intradermal (ID) injection of (0.4 mg, 0.6 mg and 0.8 mg) anti-BSA in a volume of 100 μl per injection in normal saline. The ID injections are randomized near the mid dorsal region on both sides of the back bone. Immediately after the ID injections of the anti-BSA, the rats are administered intravenous (IV) injections of BSA (10 mg in 1.0 ml) in normal saline containing ^125 I labeled BSA (1 μCi/ml BSA or 5.0 μCi/kg body wt) for quantification of dermal vascular injury. Anti-inflammatory agents such as inhibitors of adhesion molecules of the present invention are administered IV at a single dose of 3 mg immediately after BSA. Four (4) hours after the IV injection of BSA, the rats are anesthetized with metafane and 2 to 3 ml of blood is withdrawn via the cannula into an anticoagulant containing (EDTA or Heparin) tube and plasma separated and saved for neutrophil and albumin quantitation. The rats are killed and the skin surrounding the injection site (15 mm diameter) is punched out and weighed. The skin samples and a fixed volume of plasma (0.1 to 1.0 ml) is analyzed in a gamma-counter for ^125 I content. Skin samples from the contralateral side are processed and analyzed for myeloperoxidase activity (MPO) as a measure of neutrophil accumulation. As needed, samples are also processed for histological evaluation of the reacted sites.
Vascular Permeability (VP)
The calculation of the plasma protein exudation into skin is made by determining the radioactivity in the tissue and relating this to the level of radioactive albumin in the blood at the time of sacrifice. […] [formula]
Percent inhibition of the test compound at 3 mg was determined as follows: [formula] Myeloperoxidase (MPO)
MPO is located in the azurophil granules of polymorphonuclear leukocytes (PMN). Because of its abundance in these cells (5% dry weight), this enzyme is used as a marker for tissue neutrophil content. For tissue MPO content, the method of Bradley, et al., was used as described in J. Invest. Dermatol. (1982) 78: 206-209. Biopsies from each treatment group were placed in plastic tubes (15×100 mm) containing 10 ml of 0.5% hexadecyltrimethylammonium bromide (HTAB) in 0.05M potassium phosphate buffer pH 6.0. The tissue was then homogenized with a Brinkmann Polytron homogenizer (10s). […]

Compound	IC50 (P-selectin [2]) [µM]	IC50 (P-selectin Rg) [µM]	inhibit P-selectin mediated adhesion (P-selectin [1])	RPA MPO % Inhib. (rats) [%]	RPA VP % Inhib. (rats) [%]
fucoidan	–	–	inhibit P-selectin mediated adhesion	–	–
CCCCCCCC/C=C\CCCCCCCCCCCCCC(=O)N[C@@H](CO[C@H]1O[C@H](COS(=O)(=O)O)[C@H](OS(=O)(=O)O)[C@H](O)[C@H]1O)[C@H](O)/C=C/CCCCCCCCCCCCC [Example 4, (2S,3R,4E)-3-Hydroxy-2-(cis-15-tetracosenoylamino)-1-[4,6-di-O-(sodiumoxysulfonyl)-α-D-galactopyranosyloxy]-4-octadecene]	9	8	–	–	–
heparin	–	–	inhibit P-selectin mediated adhesion	–	–
CCCCCCCCCCCCC/C=C/[C@@H](OC(=O)c1ccccc1)[C@H](CO[C@H]1O[C@H](COS(=O)(=O)O)[C@H](OS(=O)(=O)O)[C@H](OS(=O)(=O)O)[C@H]1OS(=O)(=O)O)NC(=O)CCCCCCCCCCCCCCC [Example 23, (2S,3R,4E)-3-Benzoyloxy-2-hexadecanoylamino-1-[2,3,4,6-tetra-O-(sodiumoxysulfonyl)-α-D-galactopyranosyloxy]-4-octadecene]	> 8	2.6	–	26.4	0
CCCCCC/C=C/[C@@H](OC(=O)c1ccccc1)[C@H](CO[C@H]1O[C@H](COS(=O)(=O)O)[C@H](OS(=O)(=O)O)[C@H](OC(=O)c2ccccc2)[C@H]1OC(=O)c1ccccc1)NC(=O)CCCCC [Example 10, (2S,3R,4E)-1-[2,3-di-O-benzoyl-4,6-Di-O-(sodiumoxysulfonyl)-α-D-galactopyranosyloxy]-3-benzoyloxy-2-hexanoylamino-4-undecene]	> 6.1	8	–	71.6	11

More lines, main results first:

IC50 (P-selectin [2]) [µM]	IC50 (P-selectin Rg) [µM]	Compound	inhibit P-selectin mediated adhesion (P-selectin [1])	RPA MPO % Inhib. (rats) [%]	RPA VP % Inhib. (rats) [%]
~0.4	11	CCCCCCCCCCCCC/C=C/[C@@H](OC(=O)c1ccccc1)[C@H](CO[C@H]1O[C@H](COS(=O)(=O)O)[C@@H](OS(=O)(=O)O)[C@H](OC(=O)c2ccccc2)[C@H]1OC(=O)c1ccccc1)NC(=O)CCCCCCCCCCCCCCC [Example 7, (2S,3R,4E)-3-Benzoyloxy-2-hexadecanoylamino-1-[-2,3-di-O-benzoyl-4,6-di-O-(sodiumoxysulfonyl)-α-D-glucopyranosyloxy]-4-octadecene]	–	97	88
0.3	8.3	CCCCCCCCCCCCC/C=C/[C@@H](OC(=O)c1ccccc1)[C@H](CO[C@H]1O[C@H](COS(=O)(=O)O)[C@H](OS(=O)(=O)O)[C@H](OC(=O)c2ccccc2)[C@H]1OC(=O)c1ccccc1)NC(=O)CCCCCCCCCCCCCCC [Example 1, (2S,3R,4E)-3-Benzoyloxy-2-hexadecanoylamino-1-[2,3-di-O-benzoyl-4,6-di-O-(sodiumoxysulfonyl)-α-D-galactopyranosyloxy]-4-octadecene]	–	97	68
1.7	8.9	CCCCCCCCCCCCC/C=C/[C@@H](OC(=O)c1ccccc1)[C@H](CO[C@H]1O[C@H](COS(=O)(=O)O)[C@H](OS(=O)(=O)O)[C@H](OCc2ccccc2)[C@H]1OCc1ccccc1)NC(=O)CCCCCCCCCCCCCCC [Example 11, (2S,3R,4E)-2-Hexadecanoylamino-3-benzoyloxy-1-[2,3-di-O-benzyl-4,6-di-O-(sodiumoxysulfonyl)-α-D-galactopyranosyloxy]-4-octadecene]	–	53.7	32
2.2	5.2	CCCCCCCCCCCCC/C=C/[C@@H](OC(=O)c1ccccc1)[C@H](CO[C@H]1O[C@H](COS(=O)(=O)O)[C@H](O)[C@H](O)[C@H]1OS(=O)(=O)O)NC(=O)CCCCCCCCCCCCCCC [Example 15, (2S,3R,4E)-3-Benzoyloxy-2-hexadecanoylamino-1-[2,6-di-O-(sodiumoxysulfonyl)-α-D-galactopyranosyloxy]-4-octadecene]	–	0	50
0.2	17	CCCCCCCCCCCCC/C=C/[C@@H](O)[C@H](CO[C@H]1O[C@H](COS(=O)(=O)O)[C@H](OS(=O)(=O)O)[C@H](O)[C@H]1O)NC(=O)CCCCCCCCCCCCCCC [Example 2, (2S,3R,4E)-3-Hydroxy-2-hexadecanoylamino-1-[4,6-di-O-(sodiumoxysulfonyl)-α-D-galactopyranosyloxy]-4-octadecene]	–	0	14
